In ChEMBL document CHEMBL1201862, “PubChem BioAssay data set” (2004):
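Protocol summary: plate cells (96-well), add compound at 5 concentrations, incubate 48 h, interpolate endpoints linearly. GI50 = concentration required for 50% inhibition of growth.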 Calls of active or inactive are those of the source. No stated cut-off is given here; in the data, active = GI50 up to about 1.1 µM and inactive = higher.

Tests used:
Assay in all cases: NCI anticancer screen, dose series, 48 h
786-0 = tested on: 786-0
A498 = tested on: A498
A549 = tested on: A549
ACHN = tested on: ACHN
CAKI-1 = tested on: CAKI-1
CCRF-CEM = tested on: CCRF-CEM
COLO 205 = tested on: COLO 205
DLD-1 = tested on: DLD-1
DMS-114 = tested on: DMS-114
DMS-273 = tested on: DMS-273
EKVX = tested on: EKVX
HCC 2998 = tested on: HCC 2998
HCT-116 = tested on: HCT-116
HCT-15 = tested on: HCT-15
HL-60 = tested on: HL-60
HOP-18 = tested on: HOP-18
HOP-62 = tested on: HOP-62
HT-29 = tested on: HT-29
IGROV-1 = tested on: IGROV-1
K562 = tested on: K562
KM-20L2 = tested on: KM-20L2
KM12 = tested on: KM12
LOX IMVI = tested on: LOX IMVI
LXFL 529 = tested on: LXFL 529
M14 = tested on: M14
MOLT-4 = tested on: MOLT-4
Malme-3M = tested on: Malme-3M
NCI-H226 = tested on: NCI-H226
NCI-H23 = tested on: NCI-H23
NCI-H460 = tested on: NCI-H460
NCI-H522 = tested on: NCI-H522
OVCAR-3 = tested on: OVCAR-3
OVCAR-4 = tested on: OVCAR-4
OVCAR-5 = tested on: OVCAR-5
OVCAR-8 = tested on: OVCAR-8
RXF 393 = tested on: RXF 393
RXF 631 = tested on: RXF 631
SF-268 = tested on: SF-268
SF-295 = tested on: SF-295
SF-539 = tested on: SF-539
SK-MEL-28 = tested on: SK-MEL-28
SK-MEL-2 = tested on: SK-MEL-2
SK-MEL-5 = tested on: SK-MEL-5
SK-OV-3 = tested on: SK-OV-3
SN12C = tested on: SN12C
SNB-19 = tested on: SNB-19
SNB-75 = tested on: SNB-75
SNB-78 = tested on: SNB-78
SR = tested on: SR
SW-620 = tested on: SW-620
TK-10 = tested on: TK-10
U-251 = tested on: U-251
UACC-257 = tested on: UACC-257
UACC-62 = tested on: UACC-62
UO-31 = tested on: UO-31
XF498 = tested on: XF498
HOP-92 = tested on: HOP-92
M19-MEL = tested on: M19-MEL
RPMI-8226 = tested on: RPMI-8226

Nc1nc(N)c(-c2ccc(Cl)cc2)c(CCC(=O)Nc2cccc(C(F)(F)F)c2)n1
GI50 (786-0): > 100 µM (inactive)
GI50 (A498): > 100 µM (inactive)
GI50 (A549): > 100 µM (inactive)
GI50 (ACHN): > 100 µM (inactive)
GI50 (CAKI-1): > 100 µM (inactive)
GI50 (CCRF-CEM): > 100 µM (inactive)
GI50 (COLO 205): > 100 µM (inactive)
GI50 (DLD-1): > 100 µM (inactive)
GI50 (DMS-114): > 100 µM (inactive)
GI50 (DMS-273): > 100 µM (inactive)
GI50 (EKVX): > 100 µM (inactive)
GI50 (HCC 2998): > 100 µM (inactive)
GI50 (HCT-116): > 100 µM (inactive)
GI50 (HCT-15): > 100 µM
GI50 (HL-60): > 100 µM (inactive)
GI50 (HOP-18): > 100 µM (inactive)
GI50 (HOP-62): > 100 µM (inactive)
GI50 (HT-29): > 100 µM (inactive)
GI50 (IGROV-1): > 100 µM (inactive)
GI50 (K562): > 100 µM (inactive)
GI50 (KM-20L2): > 100 µM (inactive)
GI50 (KM12): > 100 µM (inactive)
GI50 (LOX IMVI): > 100 µM (inactive)
GI50 (LXFL 529): > 100 µM (inactive)
GI50 (M14): > 100 µM (inactive)
GI50 (MOLT-4): > 100 µM (inactive)
GI50 (Malme-3M): > 100 µM (inactive)
GI50 (NCI-H226): > 100 µM (inactive)
GI50 (NCI-H23): > 100 µM (inactive)
GI50 (NCI-H460): > 100 µM (inactive)
GI50 (NCI-H522): > 100 µM (inactive)
GI50 (OVCAR-3): > 100 µM (inactive)
GI50 (OVCAR-4): > 100 µM (inactive)
GI50 (OVCAR-5): > 100 µM (inactive)
GI50 (OVCAR-8): > 100 µM (inactive)
GI50 (RXF 393): > 100 µM (inactive)
GI50 (RXF 631): > 100 µM (inactive)
GI50 (SF-268): > 100 µM (inactive)
GI50 (SF-295): > 100 µM (inactive)
GI50 (SF-539): > 100 µM (inactive)
GI50 (SK-MEL-28): > 100 µM (inactive)
GI50 (SK-MEL-2): > 100 µM (inactive)
GI50 (SK-MEL-5): > 100 µM (inactive)
GI50 (SK-OV-3): > 100 µM (inactive)
GI50 (SN12C): > 100 µM (inactive)
GI50 (SNB-19): > 100 µM (inactive)
GI50 (SNB-75): > 100 µM (inactive)
GI50 (SNB-78): > 100 µM (inactive)
GI50 (SR): > 100 µM (inactive)
GI50 (SW-620): > 100 µM (inactive)
GI50 (TK-10): > 100 µM (inactive)
GI50 (U-251): > 100 µM (inactive)
GI50 (UACC-257): > 100 µM (inactive)
GI50 (UACC-62): > 100 µM (inactive)
GI50 (UO-31): > 100 µM (inactive)
GI50 (XF498): > 100 µM (inactive)

C=CCO[C@H]1CC[C@@]2(C)C(CC[C@]3(C)C2CC=C2[C@@H]4[C@@H](C)C(C)CC[C@]4(C(=O)O)CCC23C)C1(C)C (stereo not given in full)
GI50 (786-0): 15.7 µM (inactive)
GI50 (A498): 17.3 µM (inactive)
GI50 (A549): 16.4 µM (inactive)
GI50 (ACHN): 15.4 µM (inactive)
GI50 (CAKI-1): 17.9 µM (inactive)
GI50 (CCRF-CEM): 13.2 µM (inactive)
GI50 (COLO 205): 16 µM (inactive)
GI50 (DLD-1): 17.3 µM (inactive)
GI50 (DMS-114): 16.7 µM (inactive)
GI50 (EKVX): 21.2 µM (inactive)
GI50 (HCC 2998): 17.1 µM (inactive)
GI50 (HCT-116): 12.7 µM (inactive)
GI50 (HL-60): 7.01 µM (inactive)
GI50 (HOP-18): 22 µM (inactive)
GI50 (HOP-62): 22.1 µM (inactive)
GI50 (HOP-92): 16.3 µM (inactive)
GI50 (HT-29): 16.3 µM (inactive)
GI50 (IGROV-1): 16.6 µM (inactive)
GI50 (K562): 14.3 µM (inactive)
GI50 (KM-20L2): 17.3 µM (inactive)
GI50 (KM12): 16.1 µM (inactive)
GI50 (LOX IMVI): 13.5 µM (inactive)
GI50 (LXFL 529): 12.6 µM (inactive)
GI50 (M14): 17.5 µM (inactive)
GI50 (M19-MEL): 17.7 µM (inactive)
GI50 (Malme-3M): 19.5 µM (inactive)
GI50 (NCI-H226): 18.6 µM (inactive)
GI50 (NCI-H23): 14.9 µM (inactive)
GI50 (NCI-H460): 17.5 µM (inactive)
GI50 (NCI-H522): 13.2 µM (inactive)
GI50 (OVCAR-3): 15.7 µM (inactive)
GI50 (OVCAR-4): 17.6 µM (inactive)
GI50 (OVCAR-8): 18.4 µM (inactive)
GI50 (RXF 393): 6.05 µM (inactive)
GI50 (RXF 631): 13.7 µM (inactive)
GI50 (SF-268): 19.2 µM (inactive)
GI50 (SF-295): 14.2 µM (inactive)
GI50 (SF-539): 17 µM (inactive)
GI50 (SK-MEL-28): 15.6 µM (inactive)
GI50 (SK-MEL-5): 16.5 µM (inactive)
GI50 (SK-OV-3): 16.9 µM (inactive)
GI50 (SN12C): 13.6 µM (inactive)
GI50 (SNB-19): 17.1 µM (inactive)
GI50 (SNB-75): 15.6 µM (inactive)
GI50 (SNB-78): 17.6 µM (inactive)
GI50 (SR): 13.8 µM (inactive)
GI50 (SW-620): 18.5 µM (inactive)
GI50 (TK-10): 18.2 µM (inactive)
GI50 (U-251): 16.1 µM (inactive)
GI50 (UACC-257): 16.9 µM (inactive)
GI50 (UACC-62): 14.4 µM (inactive)
GI50 (UO-31): 15 µM (inactive)
GI50 (XF498): 7.1 µM (inactive)

c1ccc2c(CN3CCC(C4CCN(Cc5cccc6ccccc56)CC4)CC3)cccc2c1
GI50 (786-0): 16 µM (inactive)
GI50 (A549): 38.3 µM (inactive)
GI50 (ACHN): 36.1 µM (inactive)
GI50 (COLO 205): 1.72 µM (inactive)
GI50 (DLD-1): 2.09 µM (inactive)
GI50 (DMS-114): 2.64 µM (inactive)
GI50 (DMS-273): 6.73 µM (inactive)
GI50 (HCC 2998): 1.09 µM (active)
GI50 (HL-60): 1.98 µM (inactive)
GI50 (HOP-18): 40.1 µM (inactive)
GI50 (HOP-62): 14.7 µM (inactive)
GI50 (HT-29): 3.11 µM (inactive)
GI50 (K562): 1.53 µM (inactive)
GI50 (KM-20L2): 2.81 µM (inactive)
GI50 (LXFL 529): 5.74 µM (inactive)
GI50 (M14): 1.92 µM (inactive)
GI50 (M19-MEL): 6.64 µM (inactive)
GI50 (MOLT-4): 5.7 µM (inactive)
GI50 (Malme-3M): 2.4 µM (inactive)
GI50 (NCI-H460): 19 µM (inactive)
GI50 (NCI-H522): 12.9 µM (inactive)
GI50 (OVCAR-3): 39.7 µM (inactive)
GI50 (RPMI-8226): 3.66 µM (inactive)
GI50 (RXF 393): 11.9 µM (inactive)
GI50 (RXF 631): 12.2 µM (inactive)
GI50 (SF-295): 7.64 µM (inactive)
GI50 (SK-MEL-2): 6.21 µM (inactive)
GI50 (SK-MEL-5): 4.22 µM (inactive)
GI50 (SK-OV-3): 21.1 µM (inactive)
GI50 (SN12C): > 63 µM (inactive)
GI50 (SNB-78): 23.7 µM (inactive)
GI50 (TK-10): 17.7 µM (inactive)
GI50 (U-251): 11.3 µM (inactive)
GI50 (UACC-257): 2.1 µM (inactive)
GI50 (UACC-62): 5.64 µM (inactive)
GI50 (XF498): 4.75 µM (inactive)
